Results from patent publication US9981945B2, “Pyrimidine derivatives as CFTR modulators” (NuBridge BioSciences, priority 2015, dated 2018).
Where a name gives a salt, the structure may show the parent alone.

Each compound was assayed against T1, ΔF508 mutant CFTR (Homo sapiens, UniProt P13569, DEL508-508) (assay: Fluorescence (YFP halide quenching) assay of ΔF508 mutant CFTR activity in FRT cells). Conditions: FRT cells expressing ΔF508-CFTR and YFP-H148Q/I152L, rescued at 27° C. 20-24 h; forskolin 20 μM + test compound 20 μM for 20 min; I− influx rate normalized to forskolin alone.
T1 construct: expressed in transfected cells; host or cells: Fischer rat thyroid (FRT) cells
Format: cell-based
Parameters: key: fold of mean activity with forskolin alone (I− quenching rate)
Description: The ΔF508 mutant CFTR activities of the CFTR modulators are detected using the Fluorescence Assay developed by Pedemonte (Pedemonte N., et al., Antihypertensive 1,4-dihydropyridines as correctors of the cystic fibrosis transmembrane conductance regulator channel gating defect caused by cystic fibrosis mutations, Mol. Pharmacol., 2005, 68, 1736-1746).
Fischer rat thyroid (FRT) cells, stably transfected with ΔF508 were retransfected with the YFP-H148Q/I152L fluorescent protein. The cells were plated (100,000 cells/well) on black 96-well microplates with clear plastic bottom (Corning Life Sciences, Acton, Mass.).
The 96-well microplates containing FRT cells expressing F508-CFTR and the halide-sensitive YFP were incubated at 27° C. for 20 to 24 h to allow rescue of the mutant protein to the plasma membrane. After incubation, cells were washed with PBS (containing 137 mM NaCl, 2.7 mM KCl, 8.1 mM Na2HPO4, 1.5 mM KH2PO4, 1 mM CaCl2, and 0.5 mM MgCl2) and stimulated for 20 min with forskolin (20 μM) and test compounds (20 μM) in a final volume of 60 μl. Microplates were then transferred to a microplate reader for CFTR activity determination. Each assay consisted of a continuous 14-s fluorescence reading (5 points per second) with 2 s before and 12 s after injection of 165 μl of an iodide-containing solution (PBS with Cl^− replaced by I^−). Final iodide concentration in the wells was 100 mM. […] To determine I^− influx rate, the final 11 s of the data for each well were fitted with an exponential function to extrapolate initial slope. CFTR activity was determined by measuring the rate of fluorescence quenching induced by extracellular addition of I^−. Data are normalized to the mean activity measured in the presence of forskolin alone.

T1 sequence (P13569 with tags, fused parts or gaps DEL508-508): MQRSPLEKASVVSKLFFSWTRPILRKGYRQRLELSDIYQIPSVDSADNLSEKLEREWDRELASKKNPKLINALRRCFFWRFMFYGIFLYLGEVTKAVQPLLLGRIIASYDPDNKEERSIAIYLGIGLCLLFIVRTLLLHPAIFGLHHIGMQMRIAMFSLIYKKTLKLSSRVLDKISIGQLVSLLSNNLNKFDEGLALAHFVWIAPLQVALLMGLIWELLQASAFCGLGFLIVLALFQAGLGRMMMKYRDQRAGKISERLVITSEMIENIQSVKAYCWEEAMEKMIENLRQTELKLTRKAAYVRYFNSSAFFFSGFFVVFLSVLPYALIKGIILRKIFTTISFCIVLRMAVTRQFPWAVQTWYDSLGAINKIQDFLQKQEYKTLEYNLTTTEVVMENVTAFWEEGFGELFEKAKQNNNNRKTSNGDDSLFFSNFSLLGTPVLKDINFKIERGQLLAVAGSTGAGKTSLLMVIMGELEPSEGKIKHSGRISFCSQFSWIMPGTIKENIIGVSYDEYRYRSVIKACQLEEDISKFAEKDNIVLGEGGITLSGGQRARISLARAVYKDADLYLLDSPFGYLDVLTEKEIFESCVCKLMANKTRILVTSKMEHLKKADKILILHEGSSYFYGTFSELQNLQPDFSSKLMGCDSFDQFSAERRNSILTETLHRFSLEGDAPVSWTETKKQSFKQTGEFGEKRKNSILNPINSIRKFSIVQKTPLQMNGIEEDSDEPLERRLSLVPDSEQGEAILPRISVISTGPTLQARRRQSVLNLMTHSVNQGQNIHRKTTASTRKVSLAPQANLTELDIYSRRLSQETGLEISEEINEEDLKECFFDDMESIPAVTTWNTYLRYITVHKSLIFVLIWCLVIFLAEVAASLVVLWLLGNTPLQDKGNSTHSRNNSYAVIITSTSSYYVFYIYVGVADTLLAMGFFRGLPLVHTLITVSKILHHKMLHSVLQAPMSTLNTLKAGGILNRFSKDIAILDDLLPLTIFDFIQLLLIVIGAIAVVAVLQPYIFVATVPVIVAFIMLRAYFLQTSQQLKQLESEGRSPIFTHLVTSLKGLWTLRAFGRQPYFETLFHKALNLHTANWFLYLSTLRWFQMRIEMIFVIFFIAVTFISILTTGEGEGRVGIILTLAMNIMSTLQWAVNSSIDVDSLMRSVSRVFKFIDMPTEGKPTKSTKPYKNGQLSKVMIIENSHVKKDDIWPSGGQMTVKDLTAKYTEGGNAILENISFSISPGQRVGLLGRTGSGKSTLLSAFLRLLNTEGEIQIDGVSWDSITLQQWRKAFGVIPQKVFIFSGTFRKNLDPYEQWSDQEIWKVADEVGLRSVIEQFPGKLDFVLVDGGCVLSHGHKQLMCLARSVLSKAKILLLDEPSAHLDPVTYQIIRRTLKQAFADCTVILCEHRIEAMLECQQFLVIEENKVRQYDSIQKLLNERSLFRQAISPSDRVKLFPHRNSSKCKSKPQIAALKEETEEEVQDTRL

`CNCCCOc1ncncc1NC(=O)c1ccc(F)c(-c2c(F)cccc2F)n1.Cl` [Example 13, 6-(2,6-difluorophenyl)-5-fluoro-N-(4-(3-(methylamino)propoxy)pyrimidin-5-yl)picolinamide hydrochloride] and `CNCCCCOc1ncncc1NC(=O)c1ccc(F)c(-c2c(F)cccc2F)n1.Cl` [Example 16, 6-(2,6-difluorophenyl)-5-fluoro-N-(4-(4-(methylamino)butoxy)pyrimidin-5-yl)picolinamide hydrochloride] are the same in “CFTR Activity” value: 0.5 for the first, 0.5 for the second.

Compared with `Cl.Nc1cc(F)c(-c2c(F)cccc2F)nc1C(=O)Nc1cncnc1OCC1CCCNC1` (centres unmarked) [Example 35, 3-amino-6-(2,6-difluorophenyl)-5-fluoro-N-(4-(piperidin-3-ylmethoxy)pyrimidin-5-yl)picolinamide hydrochloride], `Cl.Nc1cc(F)c(-c2c(F)cccc2F)nc1C(=O)Nc1cncnc1OCC1CCNCC1` [Example 23, 3-amino-6-(2,6-difluorophenyl)-5-fluoro-N-(4-(piperidin-4-ylmethoxy)pyrimidin-5-yl)picolinamide hydrochloride] is higher in “CFTR Activity” value: 2.1 for the first, 2.2 for the second.

`Cl.O=C(Nc1cncnc1OCC1CCCNC1)c1ccc(F)c(-c2c(F)cccc2F)n1` (centres unmarked) [Example 7, 6-(2,6-difluorophenyl)-5-fluoro-N-(4-(piperidin-3-ylmethoxy)pyrimidin-5-yl)picolinamide hydrochloride] and `Cl.O=C(Nc1cncnc1OCC1CNC1)c1ccc(F)c(-c2c(F)cccc2F)n1` [Example 2, N-(4-(azetidin-3-ylmethoxy)pyrimidin-5-yl)-6-(2,6-difluorophenyl)-5-fluoropicolinamide hydrochloride] are the same in “CFTR Activity” value: 0.5 for the first, 0.5 for the second.

Going from `Cl.NC1CCC(Oc2ncncc2NC(=O)c2ccc(F)c(-c3c(F)cccc3F)n2)CC1` (centres unmarked) [Example 10, N-(4-(((1r,4r)-4-aminocyclohexyl)oxy)pyrimidin-5-yl)-6-(2,6-difluorophenyl)-5-fluoropicolinamide hydrochloride] to `Cl.O=C(Nc1cncnc1OC1CCNC1)c1ccc(F)c(-c2c(F)cccc2F)n1` (centres unmarked) [Example 4, 6-(2,6-difluorophenyl)-5-fluoro-N-(4-(pyrrolidin-3-yloxy)pyrimidin-5-yl)picolinamide hydrochloride], the “CFTR Activity” value falls from 1.9 to 0.7.

Compared with `Cl.Nc1cc(F)c(-c2c(F)cccc2F)nc1C(=O)Nc1cncnc1OC1CCCNCC1` (centres unmarked) [Example 26, 3-amino-N-(4-(azepan-4-yloxy)pyrimidin-5-yl)-6-(2,6-difluorophenyl)-5-fluoropicolinamide hydrochloride], `Cl.Nc1cc(F)c(-c2c(F)cccc2F)nc1C(=O)Nc1cncnc1OC1CCNCC1` [Example 25, 3-amino-6-(2,6-difluorophenyl)-5-fluoro-N-(4-(piperidin-4-yloxy)pyrimidin-5-yl)picolinamide hydrochloride] is lower in “CFTR Activity” value: 4.0 for the first, 3.1 for the second.

Compared with `O=C(Nc1cncnc1OCCCCO)c1ccc(F)c(-c2c(F)cccc2F)n1` [Example 19, 6-(2,6-difluorophenyl)-5-fluoro-N-(4-(4-hydroxybutoxy)pyrimidin-5-yl)picolinamide], `Cl.NCCCCOc1ncncc1NC(=O)c1ccc(F)c(-c2c(F)cccc2F)n1` [Example 15, N-(4-(4-aminobutoxy)pyrimidin-5-yl)-6-(2,6-difluorophenyl)-5-fluoropicolinamide hydrochloride] is higher in “CFTR Activity” value: 0.3 for the first, 0.5 for the second.

Going from `Cl.NCC(CCl)COc1ncncc1NC(=O)c1ccc(C(F)(F)F)c(-c2c(F)cccc2F)n1` (centres unmarked) [Example 54, N-(4-(3-amino-2-(chloromethyl)propoxy)pyrimidin-5-yl)-6-(2,6-difluorophenyl)-5-(trifluoromethyl)picolinamide hydrochloride] to `Cl.NCC(CCl)COc1ncncc1NC(=O)c1nc(-c2c(F)cccc2F)c(C(F)(F)F)cc1N` (centres unmarked) [Example 55, 3-amino-N-(4-(3-amino-2-(chloromethyl)propoxy)pyrimidin-5-yl)-6-(2,6-difluorophenyl)-5-(trifluoromethyl)picolinamide hydrochloride], the “CFTR Activity” value rises from 2.0 to 4.4.

First: Cl.O=C(Nc1cncnc1OCC1CNC1)c1ccc(C(F)(F)F)c(-c2c(F)cccc2F)n1 [Example 44, N-(4-(azetidin-3-ylmethoxy)pyrimidin-5-yl)-6-(2,6-difluorophenyl)-5-(trifluoromethyl)picolinamide hydrochloride]
Second: O=C(Nc1cncnc1OCC1CCOCC1)c1ccc(C(F)(F)F)c(-c2c(F)cccc2F)n1 [Example 47, 6-(2,6-difluorophenyl)-N-(4-((tetrahydro-2H-pyran-4-yl)methoxy)pyrimidin-5-yl)-5-(trifluoromethyl)picolinamide]
The “CFTR Activity” value of the first is higher: 1.8 for the first, 0.1 for the second.

First: Cl.O=C(Nc1cncnc1OC1CCCNC1)c1ccc(F)c(-c2c(F)cccc2F)n1 (centres unmarked) [Example 5, 6-(2,6-difluorophenyl)-5-fluoro-N-(4-(piperidin-3-yloxy)pyrimidin-5-yl)picolinamide hydrochloride]
Second: Cl.O=C(Nc1cncnc1OC1CNC1)c1ccc(F)c(-c2c(F)cccc2F)n1 [Example 9, N-(4-(azetidin-3-yloxy)pyrimidin-5-yl)-6-(2,6-difluorophenyl)-5-fluoropicolinamide hydrochloride]
The “CFTR Activity” value of the first is higher: 0.6 for the first, 0.4 for the second.

Compared with `Cl.NC1CCCC(Oc2ncncc2NC(=O)c2ccc(C(F)(F)F)c(-c3c(F)cccc3F)n2)C1` (centres unmarked) [Example 60, N-(4-((3-aminocyclohexyl)oxy)pyrimidin-5-yl)-6-(2,6-difluorophenyl)-5-(trifluoromethyl)picolinamide hydrochloride], `Cl.O=C(Nc1cncnc1OC1CCCNCC1)c1ccc(C(F)(F)F)c(-c2c(F)cccc2F)n1` (centres unmarked) [Example 42, N-(4-(azepan-4-yloxy)pyrimidin-5-yl)-6-(2,6-difluorophenyl)-5-(trifluoromethyl)picolinamide hydrochloride] is lower in “CFTR Activity” value: 4.8 for the first, 2.4 for the second.

Going from `CC(O)CCOc1ncncc1NC(=O)c1ccc(F)c(-c2c(F)cccc2F)n1` (centres unmarked) [Example 18, 6-(2,6-difluorophenyl)-5-fluoro-N-(4-(3-hydroxybutoxy)pyrimidin-5-yl)picolinamide] to `Cl.NCCCOc1ncncc1NC(=O)c1ccc(F)c(-c2c(F)cccc2F)n1` [Example 12, N-(4-(3-aminopropoxy)pyrimidin-5-yl)-6-(2,6-difluorophenyl)-5-fluoropicolinamide hydrochloride], the “CFTR Activity” value rises from 0.2 to 0.7.

Going from `Cl.Nc1cc(C(F)(F)F)c(-c2ccccc2)nc1C(=O)Nc1cncnc1OC1CCNC1` (centres unmarked) [Example 53, 3-amino-6-phenyl-N-(4-(pyrrolidin-3-yloxy)pyrimidin-5-yl)-5-(trifluoromethyl)picolinamide hydrochloride] to `Cl.Nc1cc(F)c(-c2c(F)cccc2F)nc1C(=O)Nc1cncnc1OC1CNC1` [Example 31, 3-amino-N-(4-(azetidin-3-yloxy)pyrimidin-5-yl)-6-(2,6-difluorophenyl)-5-fluoropicolinamide hydrochloride], the “CFTR Activity” value falls from 2.4 to 1.0.

Compared with `NCC(CCl)Oc1ncncc1NC(=O)c1ccc(F)c(-c2c(F)cccc2F)n1` (centres unmarked) [Example 29, N-(4-((1-amino-3-chloropropan-2-yl)oxy)pyrimidin-5-yl)-6-(2,6-difluorophenyl)-5-fluoropicolinamide hydrochloride], `Cl.NCC(CCl)Oc1ncncc1NC(=O)c1nc(-c2c(F)cccc2F)c(F)cc1N` (centres unmarked) [Example 33, 3-amino-N-(4-((1-amino-3-chloropropan-2-yl)oxy)pyrimidin-5-yl)-6-(2,6-difluorophenyl)-5-fluoropicolinamide hydrochloride] is higher in “CFTR Activity” value: 1.8 for the first, 2.2 for the second.

Compared with `Cl.NCC(CCl)COc1ncncc1NC(=O)c1nc(-c2c(F)cccc2F)c(F)cc1N` (centres unmarked) [Example 34, 3-amino-N-(4-(3-amino-2-(chloromethyl)propoxy)pyrimidin-5-yl)-6-(2,6-difluorophenyl)-5-fluoropicolinamide hydrochloride], `O=C(Nc1cncnc1OCC1CCOCC1)c1ccc(F)c(-c2c(F)cccc2F)n1` [Example 22, 6-(2,6-difluorophenyl)-5-fluoro-N-(4-((tetrahydro-2H-pyran-4-yl)methoxy)pyrimidin-5-yl)picolinamide] is lower in “CFTR Activity” value: 2.0 for the first, 0.1 for the second.

For `Cl.O=C(Nc1cncnc1OC1CCNCC1)c1ccc(F)c(-c2ccncc2)n1` [Example 39, 3-fluoro-N-(4-(piperidin-4-yloxy)pyrimidin-5-yl)-[2,4′-bipyridine]-6-carboxamide hydrochloride], the “CFTR Activity” value was 0.5.
